According to US20200404919A1, “USE OF HETEROARYL-TRIAZOLE AND HETEROARYL-TETRAZOLE COMPOUNDS AS PESTICIDES IN PLANT PROTECTION” (Bayer Aktiengesellschaft, priority 2018, published 2020):

Legend:
Type in all cases: in vivo
[1] = test system: Nilaparvata lugens; assay: Nilaparvata lugens - spray test 1; conditions: in Oryza sativa, 96 h, read-out: mortality in %, 500 g/ha, rice plants, after 4 days
Method: Nilaparvata lugens—Spray Test 1
(§1) To produce a suitable preparation of active compound, 1 part by weight of active compound is mixed with the stated amount of solvents and is diluted with water, containing an emulsifier concentration of 1000 ppm, to the desired concentration. Further test concentrations are prepared by dilution with emulsifier containing water.
Rice plants (Oryza sativa) are sprayed with a preparation of the active ingredient of the desired concentration and the plants are infested with the brown planthopper (Nilaparvata lugens).
After 4 days mortality in % is determined. 100% means all planthoppers have been killed and 0% means none of the planthoppers have been killed.

[2] = test system: Phaedon cochleariae; assay: Phaedon cochleariae - spray test; conditions: in Brassica rapa, foliar, 168 h, read-out: mortality in %
Method: Phaedon cochleariae—Spray Test
as §1
Chinese cabbage (Brassica pekinensis) leaf disks are sprayed with a preparation of the active ingredient of the desired concentration. Once dry, the leaf disks are infested with mustard beetle larvae (Phaedon cochleariae).
After 7 days mortality in % is determined. 100% means all beetle larvae have been killed and 0% means none of the beetle larvae have been killed.

[3] = test system: Nezara viridula; assay: Nezara viridula - spray test 1; conditions: in Hordeum vulgare, 96 h, read-out: mortality in %
Method: Nezara viridula—Spray Test 1
as §1, with “solvent,” for “solvents”, “and the concentrate” for “and”
Barley plants (Hordeum vulgare) infested with larvae of the southern green stink bug (Nezara viridula) are sprayed with a test solution containing the desired concentration of the active ingredient.
After 4 days mortality in % is determined. 100% means all the stink bugs have been killed; 0% means none of the stink bugs have been killed.

[4] = test system: Spodoptera frugiperda; assay: Spodoptera frugiperda - spray test; conditions: in Zea mays, 168 h, read-out: mortality in %
Method: Spodoptera frugiperda—Spray Test
as §1
Maize (Zea mays) leaf sections are sprayed with a preparation of the active ingredient of the desired concentration. Once dry, the leaf sections are infested with fall armyworm larvae (Spodoptera frugiperda).
After 7 days mortality in % is determined. 100% means all caterpillars have been killed and 0% means none of the caterpillars have been killed.

[5] = test system: Aphis gossypii; assay: Aphis gossypii - oral test; conditions: 120 h, read-out: mortality in %
Method: Solvent: 100 parts by weight acetone
To produce a suitable preparation of active compound, 1 part by weight of active compound is mixed with the stated amount of solvent, and the concentrate is diluted with water to the desired concentration.
50 μl compound solution is filled in microtiter plates and 150 μl IPL41 insect medium (33%+15% sugar) is added to obtain a total volume of 200 μl per well. Afterwards the plates are sealed with parafilm through which a mixed population of the cotton aphid (Aphis gossypii) can suck on the compound preparation.
(§2) After 5 days mortality in % is determined. 100% means all aphids have been killed and 0% means none of the aphids have been killed.

[6] = test system: Myzus persicae; assay: Myzus persicae - oral test; conditions: 120 h, read-out: mortality in %
Method: To produce a suitable preparation of active compound, 1 part by weight of active compound is mixed with the stated amount of solvent, and the concentrate is diluted with water to the desired concentration. 50 μl compound solution is filled in microtiter plates and 150 μl IPL41 insect medium (33%+15% sugar) is added to obtain a total volume of 200 μl per well. Afterwards the plates are sealed with parafilm through which a mixed population of the green peach aphid (Myzus persicae) can suck on the compound preparation.
as §2

[7] = test system: Diabrotica balteata; assay: Diabrotica balteata - spray test; conditions: 168 h, 160 μg/well, germinated wheat seeds, larvae, after 7 days, read-out: efficacy in %
Method: Diabrotica balteata—Spray Test
as §1, with “solvent,” for “solvents”, “and the concentrate” for “and”
Soaked wheat seeds (Triticum aestivum) are placed in a multiple well plate filled with agar and some water and are incubated for 1 day to germinate (5 seeds per well). The germinated wheat seeds are sprayed with a test solution containing the desired concentration of the active ingredient. Afterwards each unit is infected with 10-20 larvae of the banded cucumber beetle (Diabrotica balteata).
After 7 days efficacy in % is determined. 100% means all the seedlings have grown up like in the untreated, uninfected control; 0% means none of the seedlings have grown.

SMILES | mortality at 500 g/ha [1] [%] | mortality at 500 g/ha [2] [%] | mortality at 500 g/ha [3] [%] | mortality at 500 g/ha [4] [%] | mortality at 100 ppm [5] [%] | mortality at 20 ppm [6] [%] | pest or weed control at 160 µg/disc, 160 µg/well [7] [%]
Cc1nc(C(C)N(CC2CC2)C(=O)c2cc(Cl)cc(C(F)(F)F)c2)n(-c2ncc(Cl)cn2)n1 (centres unmarked) [Compound I-78, 3-chloro-N-[1-[2-(5-chloropyrimidin-2-yl)-5-methyl-1,2,4-triazol-3-yl]ethyl]-N-(cyclopropylmethyl)-5-(trifluoromethyl)benzamide] | 100 | 100 | 100 | 100 | 100 | 100 | 100
CC(NC(=O)c1cncc(C(F)(F)F)c1)c1ncnn1-c1ncccn1 (centres unmarked) [Compound I-115] | 100 | 100 | 100 | 83 | 100 | 100 | 100
CC(c1ncnn1-c1ncccc1F)N(CC1CC1)C(=O)c1cc(Cl)cc(C(F)(F)F)c1 (centres unmarked) [Compound I-106] | 100 | 100 | 100 | 100 | 100 | 100 | 100
CC(c1ncnn1-c1ncccn1)N(CC1CC1)C(=O)c1cc(Br)cc(C(F)(F)F)c1 (centres unmarked) [Compound I-62, 3-bromo-N-(cyclopropylmethyl)-N-[1-(2-pyrimidin-2-yl-1,2,4-triazol-3-yl)ethyl]-5-(trifluoromethyl)benzamide] | 90 | 100 | 90 | 100 | 100 | 100 | 100
C[C@H](NC(=O)c1cc(Cl)cc(C(F)(F)F)c1)c1ncnn1-c1ccccn1 [Compound I-117, 3-chloro-N-[(1S)-1-[2-(2-pyridyl)-1,2,4-triazol-3-yl]ethyl]-5-(trifluoromethyl)benzamide] | 100 | 100 | 100 | 100 | 100 | 100 | 100
C[C@H](NC(=O)c1cc(C(F)(F)F)cc(C(F)(F)F)c1)c1ncnn1-c1ncccn1 [Compound I-66, N-[(1S)-1-(2-pyrimidin-2-yl-1,2,4-triazol-3-yl)ethyl]-3,5-bis(trifluoromethyl)benzamide] | 100 | 100 | 100 | 100 | 100 | 100 | 100
CC(c1ncnn1-c1ncccn1)N(CC1CC1)C(=O)c1cncc(C(F)(F)F)c1 (centres unmarked) [Compound I-28, N-(cyclopropylmethyl)-N-[1-(2-pyrimidin-2-yl-1,2,4-triazol-3-yl)ethyl]-5-(trifluoromethyl)pyridine-3-carboxamide] | 100 | 100 | 100 | – | 100 | 100 | 100
CC(c1ncnn1-c1ncccn1)N(CC(F)F)C(=O)c1cc(Cl)cc(OC(F)(F)F)c1 (centres unmarked) [Compound I-121, 3-chloro-N-(2,2-difluoroethyl)-N-[1-(2-pyrimidin-2-yl-1,2,4-triazol-3-yl)ethyl]-5-(trifluoromethoxy)benzamide] | 100 | 100 | 100 | 100 | 100 | 100 | 100
CC(c1ncnn1-c1ncccn1)N(Cc1ccccc1)C(=O)c1cc(Cl)cc(C(F)(F)F)c1 (centres unmarked) [Compound I-99] | 90 | 100 | 100 | 100 | 100 | 100 | 100
